In ChEMBL document CHEMBL1933046, “Synthesis and antibacterial activity of a novel series of acylides active against community acquired respiratory pathogens” (2012) one finds MIC data, which are given here for 36 compounds.

In brackets after ≈: the same amount, converted by molar mass.

The experiment deals with Streptococcus pneumoniae. As to the kind of experiment: Antibacterial activity against Streptococcus pneumoniae by NCCLS method. It counts as functional.

As a reminder, the MIC is the lowest concentration that inhibits growth of the organism. Read a low MIC as greater potency. Turning to `C=CCN(C)[C@H]1C[C@@H](C)O[C@@H](O[C@@H]2[C@@H](C)[C@H](OC(=O)Cc3ccccc3F)[C@@H](C)C(=O)O[C@H](CC)[C@@](C)(O)[C@H](O)[C@@H](C)C(=O)[C@H](C)C[C@@]2(C)OC)[C@@H]1O`, it took 0.25 µg/mL (≈ 0.332 µM) to inhibit growth (MIC). For `CC[C@H]1OC(=O)[C@H](C)[C@@H](OC(=O)Cc2cccnc2)[C@H](C)[C@@H](O[C@@H]2O[C@H](C)C[C@H](N(C)Cc3ccccc3)[C@H]2O)[C@](C)(OC)C[C@@H](C)C(=O)[C@H](C)[C@@H](O)[C@]1(C)O`, it took 0.25 µg/mL (≈ 0.318 µM) to inhibit growth (MIC). In turn, `C#CCN(C)[C@H]1C[C@@H](C)O[C@@H](O[C@@H]2[C@@H](C)[C@H](OC(=O)Cc3ccccn3)[C@@H](C)C(=O)O[C@H](CC)[C@@](C)(O)[C@H](O)[C@@H](C)C(=O)[C@H](C)C[C@@]2(C)OC)[C@@H]1O` displayed an MIC of 4 µg/mL (≈ 5.46 µM). To `CC[C@H]1OC(=O)[C@H](C)[C@@H](OC(=O)Cc2cccc([N+](=O)[O-])c2)[C@H](C)[C@@H](O[C@@H]2O[C@H](C)C[C@H](N(C)CC)[C@H]2O)[C@](C)(OC)C[C@@H](C)C(=O)[C@H](C)[C@@H](O)[C@]1(C)O` belongs 0.25 µg/mL (≈ 0.326 µM).

As to `CC[C@H]1OC(=O)[C@H](C)[C@@H](OC(=O)Cc2ccccn2)[C@H](C)[C@@H](O[C@@H]2O[C@H](C)C[C@H](N(C)C3CC3)[C@H]2O)[C@](C)(OC)C[C@@H](C)C(=O)[C@H](C)[C@@H](O)[C@]1(C)O`, the MIC is > 32 µg/mL. `C=CCN(C)[C@H]1C[C@@H](C)O[C@@H](O[C@@H]2[C@@H](C)[C@H](OC(=O)Cc3cccc(F)c3)[C@@H](C)C(=O)O[C@H](CC)[C@@](C)(O)[C@H](O)[C@@H](C)C(=O)[C@H](C)C[C@@]2(C)OC)[C@@H]1O` had an MIC of 0.125 µg/mL (≈ 0.166 µM).

`CC[C@H]1OC(=O)[C@H](C)[C@@H](OC(=O)Cc2ccc([N+](=O)[O-])cc2)[C@H](C)[C@@H](O[C@@H]2O[C@H](C)C[C@H](N(C)CC3CC3)[C@H]2O)[C@](C)(OC)C[C@@H](C)C(=O)[C@H](C)[C@@H](O)[C@]1(C)O`: the MIC was 1 µg/mL (≈ 1.26 µM). To `CC[C@H]1OC(=O)[C@H](C)[C@@H](OC(=O)Cc2cccc(F)c2)[C@H](C)[C@@H](O[C@@H]2O[C@H](C)C[C@H](N(C)CC)[C@H]2O)[C@](C)(OC)C[C@@H](C)C(=O)[C@H](C)[C@@H](O)[C@]1(C)O` belongs 0.125 µg/mL (≈ 0.169 µM); to `C#CCN(C)[C@H]1C[C@@H](C)O[C@@H](O[C@@H]2[C@@H](C)[C@H](OC(=O)Cc3cccc(F)c3)[C@@H](C)C(=O)O[C@H](CC)[C@@](C)(O)[C@H](O)[C@@H](C)C(=O)[C@H](C)C[C@@]2(C)OC)[C@@H]1O`, 2 µg/mL (≈ 2.67 µM). On to `C#CCN(C)[C@H]1C[C@@H](C)O[C@@H](O[C@@H]2[C@@H](C)[C@H](OC(=O)Cc3cccnc3)[C@@H](C)C(=O)O[C@H](CC)[C@@](C)(O)[C@H](O)[C@@H](C)C(=O)[C@H](C)C[C@@]2(C)OC)[C@@H]1O`, for which the MIC was 2 µg/mL (≈ 2.73 µM). Under `CC[C@H]1OC(=O)[C@H](C)[C@@H](OC(=O)Cc2ccncc2)[C@H](C)[C@@H](O[C@@H]2O[C@H](C)C[C@H](N(C)C3CC3)[C@H]2O)[C@](C)(OC)C[C@@H](C)C(=O)[C@H](C)[C@@H](O)[C@]1(C)O` stands > 32 µg/mL; under `CC[C@H]1OC(=O)[C@H](C)[C@@H](OC(=O)Cc2ccc([N+](=O)[O-])cc2)[C@H](C)[C@@H](O[C@@H]2O[C@H](C)C[C@H](N(C)C3CC3)[C@H]2O)[C@](C)(OC)C[C@@H](C)C(=O)[C@H](C)[C@@H](O)[C@]1(C)O`, > 32 µg/mL; under `CC[C@H]1OC(=O)[C@H](C)[C@@H](OC(=O)Cc2cccc([N+](=O)[O-])c2)[C@H](C)[C@@H](O[C@@H]2O[C@H](C)C[C@H](N(C)C3CC3)[C@H]2O)[C@](C)(OC)C[C@@H](C)C(=O)[C@H](C)[C@@H](O)[C@]1(C)O`, 16 µg/mL (≈ 20.5 µM). `C=CCN(C)[C@H]1C[C@@H](C)O[C@@H](O[C@@H]2[C@@H](C)[C@H](OC(=O)Cc3cccnc3)[C@@H](C)C(=O)O[C@H](CC)[C@@](C)(O)[C@H](O)[C@@H](C)C(=O)[C@H](C)C[C@@]2(C)OC)[C@@H]1O` yielded an MIC of 0.25 µg/mL (≈ 0.34 µM). Under `CC[C@H]1OC(=O)[C@H](C)[C@@H](OC(=O)Cc2ccccn2)[C@H](C)[C@@H](O[C@@H]2O[C@H](C)C[C@H](N(C)CC)[C@H]2O)[C@](C)(OC)C[C@@H](C)C(=O)[C@H](C)[C@@H](O)[C@]1(C)O` stands 0.25 µg/mL (≈ 0.346 µM); under `CC[C@H]1OC(=O)[C@H](C)[C@@H](OC(=O)Cc2ccccn2)[C@H](C)[C@@H](O[C@@H]2O[C@H](C)C[C@H](N(C)CC3CC3)[C@H]2O)[C@](C)(OC)C[C@@H](C)C(=O)[C@H](C)[C@@H](O)[C@]1(C)O`, > 16 µg/mL.

Regarding `CC[C@H]1OC(=O)[C@H](C)[C@@H](OC(=O)Cc2cccnc2)[C@H](C)[C@@H](O[C@@H]2O[C@H](C)C[C@H](N(C)CC)[C@H]2O)[C@](C)(OC)C[C@@H](C)C(=O)[C@H](C)[C@@H](O)[C@]1(C)O`, the MIC was 0.5 µg/mL (≈ 0.692 µM). Under `CC[C@H]1OC(=O)[C@H](C)[C@@H](OC(=O)Cc2ccccc2F)[C@H](C)[C@@H](O[C@@H]2O[C@H](C)C[C@H](N(C)CC3CC3)[C@H]2O)[C@](C)(OC)C[C@@H](C)C(=O)[C@H](C)[C@@H](O)[C@]1(C)O` stands 8 µg/mL (≈ 10.4 µM). In turn, `C#CCN(C)[C@H]1C[C@@H](C)O[C@@H](O[C@@H]2[C@@H](C)[C@H](OC(=O)Cc3ccccc3F)[C@@H](C)C(=O)O[C@H](CC)[C@@](C)(O)[C@H](O)[C@@H](C)C(=O)[C@H](C)C[C@@]2(C)OC)[C@@H]1O` yielded an MIC of 0.5 µg/mL (≈ 0.667 µM). In turn, `CC[C@H]1OC(=O)[C@H](C)[C@@H](OC(=O)Cc2ccccc2F)[C@H](C)[C@@H](O[C@@H]2O[C@H](C)C[C@H](N(C)Cc3ccccc3)[C@H]2O)[C@](C)(OC)C[C@@H](C)C(=O)[C@H](C)[C@@H](O)[C@]1(C)O` yielded an MIC of 0.5 µg/mL (≈ 0.623 µM). On to `CC[C@H]1OC(=O)[C@H](C)[C@@H](OC(=O)Cc2cccc(F)c2)[C@H](C)[C@@H](O[C@@H]2O[C@H](C)C[C@H](N(C)C3CC3)[C@H]2O)[C@](C)(OC)C[C@@H](C)C(=O)[C@H](C)[C@@H](O)[C@]1(C)O`, for which the MIC is > 16 µg/mL.

In turn, `CC[C@H]1OC(=O)[C@H](C)[C@@H](OC(=O)Cc2ccccc2[N+](=O)[O-])[C@H](C)[C@@H](O[C@@H]2O[C@H](C)C[C@H](N(C)CC3CC3)[C@H]2O)[C@](C)(OC)C[C@@H](C)C(=O)[C@H](C)[C@@H](O)[C@]1(C)O` came in with an MIC of 1 µg/mL (≈ 1.26 µM). With `CC[C@H]1OC(=O)[C@H](C)[C@@H](OC(=O)Cc2ccccc2F)[C@H](C)[C@@H](O[C@@H]2O[C@H](C)C[C@H](N(C)CC)[C@H]2O)[C@](C)(OC)C[C@@H](C)C(=O)[C@H](C)[C@@H](O)[C@]1(C)O`, it took 0.25 µg/mL (≈ 0.338 µM) to inhibit growth (MIC). Compound `C=CCN(C)[C@H]1C[C@@H](C)O[C@@H](O[C@@H]2[C@@H](C)[C@H](OC(=O)Cc3ccccc3[N+](=O)[O-])[C@@H](C)C(=O)O[C@H](CC)[C@@](C)(O)[C@H](O)[C@@H](C)C(=O)[C@H](C)C[C@@]2(C)OC)[C@@H]1O` gave an MIC of 0.25 µg/mL (≈ 0.321 µM). To `C=CCN(C)[C@H]1C[C@@H](C)O[C@@H](O[C@@H]2[C@@H](C)[C@H](OC(=O)Cc3cccc([N+](=O)[O-])c3)[C@@H](C)C(=O)O[C@H](CC)[C@@](C)(O)[C@H](O)[C@@H](C)C(=O)[C@H](C)C[C@@]2(C)OC)[C@@H]1O` belongs 0.06 µg/mL (≈ 0.077 µM). Compound `CC[C@H]1OC(=O)[C@H](C)[C@@H](OC(=O)Cc2ccc(F)cc2)[C@H](C)[C@@H](O[C@@H]2O[C@H](C)C[C@H](N(C)C3CC3)[C@H]2O)[C@](C)(OC)C[C@@H](C)C(=O)[C@H](C)[C@@H](O)[C@]1(C)O` came in with an MIC of 32 µg/mL (≈ 42.6 µM). To `CC[C@H]1OC(=O)[C@H](C)[C@@H](OC(=O)Cc2ccccc2F)[C@H](C)[C@@H](O[C@@H]2O[C@H](C)C[C@H](N(C)C3CC3)[C@H]2O)[C@](C)(OC)C[C@@H](C)C(=O)[C@H](C)[C@@H](O)[C@]1(C)O` belongs 16 µg/mL (≈ 21.3 µM).

Compound `CC[C@H]1OC(=O)[C@H](C)[C@@H](OC(=O)Cc2ccc([N+](=O)[O-])cc2)[C@H](C)[C@@H](O[C@@H]2O[C@H](C)C[C@H](N(C)CC)[C@H]2O)[C@](C)(OC)C[C@@H](C)C(=O)[C@H](C)[C@@H](O)[C@]1(C)O` registered an MIC of 0.5 µg/mL (≈ 0.652 µM). To `CC[C@H]1OC(=O)[C@H](C)[C@@H](OC(=O)Cc2cccc(F)c2)[C@H](C)[C@@H](O[C@@H]2O[C@H](C)C[C@H](N(C)Cc3ccc(F)cc3)[C@H]2O)[C@](C)(OC)C[C@@H](C)C(=O)[C@H](C)[C@@H](O)[C@]1(C)O` belongs 2 µg/mL (≈ 2.44 µM); to `C=CCN(C)[C@H]1C[C@@H](C)O[C@@H](O[C@@H]2[C@@H](C)[C@H](OC(=O)Cc3ccccn3)[C@@H](C)C(=O)O[C@H](CC)[C@@](C)(O)[C@H](O)[C@@H](C)C(=O)[C@H](C)C[C@@]2(C)OC)[C@@H]1O`, 0.25 µg/mL (≈ 0.34 µM); to `CC[C@H]1OC(=O)[C@H](C)[C@@H](OC(=O)Cc2cccc(F)c2)[C@H](C)[C@@H](O[C@@H]2O[C@H](C)C[C@H](N(C)CC3CC3)[C@H]2O)[C@](C)(OC)C[C@@H](C)C(=O)[C@H](C)[C@@H](O)[C@]1(C)O`, 8 µg/mL (≈ 10.4 µM). Compound `C#CCN(C)[C@H]1C[C@@H](C)O[C@@H](O[C@@H]2[C@@H](C)[C@H](OC(=O)Cc3cccc([N+](=O)[O-])c3)[C@@H](C)C(=O)O[C@H](CC)[C@@](C)(O)[C@H](O)[C@@H](C)C(=O)[C@H](C)C[C@@]2(C)OC)[C@@H]1O` came in with an MIC of 1 µg/mL (≈ 1.29 µM). As to `CC[C@H]1OC(=O)[C@H](C)[C@@H](OC(=O)Cc2ccc(F)cc2)[C@H](C)[C@@H](O[C@@H]2O[C@H](C)C[C@H](N(C)CC)[C@H]2O)[C@](C)(OC)C[C@@H](C)C(=O)[C@H](C)[C@@H](O)[C@]1(C)O`, the lowest concentration to inhibit growth (MIC) was 0.5 µg/mL (≈ 0.676 µM). `CC[C@H]1OC(=O)[C@H](C)[C@@H](OC(=O)Cc2ccncc2)[C@H](C)[C@@H](O[C@@H]2O[C@H](C)C[C@H](N(C)CC3CC3)[C@H]2O)[C@](C)(OC)C[C@@H](C)C(=O)[C@H](C)[C@@H](O)[C@]1(C)O` showed a minimum inhibitory concentration (MIC) of 32 µg/mL (≈ 42.7 µM). The compound `C=CCN(C)[C@H]1C[C@@H](C)O[C@@H](O[C@@H]2[C@@H](C)[C@H](OC(=O)Cc3ccncc3)[C@@H](C)C(=O)O[C@H](CC)[C@@](C)(O)[C@H](O)[C@@H](C)C(=O)[C@H](C)C[C@@]2(C)OC)[C@@H]1O` displayed an MIC of 0.5 µg/mL (≈ 0.68 µM).

Compound `CC[C@H]1OC(=O)[C@H](C)[C@@H](OC(=O)Cc2ccc(F)cc2)[C@H](C)[C@@H](O[C@@H]2O[C@H](C)C[C@H](N(C)Cc3ccccc3)[C@H]2O)[C@](C)(OC)C[C@@H](C)C(=O)[C@H](C)[C@@H](O)[C@]1(C)O` showed an MIC of 1 µg/mL (≈ 1.25 µM).
